Source: patent US11780845B2 (Relay Therapeutics, Inc., priority 2019, dated 2023)

What was measured:
FGFR2 = FGFR2 (Homo sapiens (Human), UniProt P21802); test: FGFR2 Biochemical Caliper Assay
Description: Compounds of the present invention were also tested in a FGFR2 Biochemical Caliper Assay. Compounds were prepared in 10 mM DMSO solution and serially diluted into 11 concentrations by 3-fold dilution. […] 5 uL of ATP solution (100 uM) was added to start the reaction and the plate was incubated for 90 minutes, then 70 uL of stopping buffer (0.5M EDTA) was added to terminate the reaction. Each well was analyzed using EZ reader.

SNU16 cells = test: SNU16 Cancer Cell Line Proliferation Assay; type: cell-based; settings: Homo sapiens; SNU-16 cells
Summary of the method: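 SNU16 cells were seeded, held 24 h at 37 degrees, then dosed with an 11-point 3-fold dilution series prepared from a 10 mM DMSO stock. After 96 h incubation, viability was read by CellTiter Glo luminescence.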

Chain of FGFR2 (P21802 22-821): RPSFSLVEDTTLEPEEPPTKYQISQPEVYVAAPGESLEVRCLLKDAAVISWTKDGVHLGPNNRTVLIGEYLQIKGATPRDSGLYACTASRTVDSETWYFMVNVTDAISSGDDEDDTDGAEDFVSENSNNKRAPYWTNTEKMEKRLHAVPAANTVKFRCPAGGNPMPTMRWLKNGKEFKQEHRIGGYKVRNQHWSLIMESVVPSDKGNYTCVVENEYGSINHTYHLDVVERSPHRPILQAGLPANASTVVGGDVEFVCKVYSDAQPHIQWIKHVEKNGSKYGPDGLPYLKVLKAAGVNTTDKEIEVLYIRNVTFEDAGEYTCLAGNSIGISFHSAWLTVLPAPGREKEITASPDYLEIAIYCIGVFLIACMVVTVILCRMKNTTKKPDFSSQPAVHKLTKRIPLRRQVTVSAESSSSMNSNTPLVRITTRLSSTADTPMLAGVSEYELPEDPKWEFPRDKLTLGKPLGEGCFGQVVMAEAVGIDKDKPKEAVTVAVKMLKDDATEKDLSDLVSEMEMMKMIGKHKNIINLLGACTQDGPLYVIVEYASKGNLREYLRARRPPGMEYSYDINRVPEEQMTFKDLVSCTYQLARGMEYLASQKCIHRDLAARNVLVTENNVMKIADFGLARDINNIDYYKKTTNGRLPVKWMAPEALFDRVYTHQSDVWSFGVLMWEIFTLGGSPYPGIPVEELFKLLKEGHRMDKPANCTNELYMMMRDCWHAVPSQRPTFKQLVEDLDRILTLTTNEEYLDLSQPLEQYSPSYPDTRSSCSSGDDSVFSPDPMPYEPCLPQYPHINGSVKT

IC50 (FGFR2) [nM]	IC50 (SNU16 cells) [nM]	SMILES
< 100	≤ 100	C=CC(=O)N1CC=C(c2c(-c3ccc(Oc4ccccn4)c(OC)c3)c3c(N)ncnc3n2C)CC1 [Example 676]
< 100	≤ 100	C=CC(=O)N1CC=C(c2c(-c3ccc(Oc4cc(C)ccn4)c(OC)c3)c3c(N)ncnc3n2C)CC1 [Example 677]
< 100	100 to 250	C=CC(=O)N1CC=C(c2c(-c3ccc(Oc4cncc(C)c4)c(OC)c3)c3c(N)ncnc3n2C)CC1 [Example 678]
< 100	≤ 100	C=CC(=O)N1CC=C(c2c(-c3ccc(Oc4ncccn4)cc3)c3c(N)ncnc3n2C)CC1 [Example 680]
< 100	≤ 100	C=CC(=O)N1CC=C(c2c(-c3ccc(Oc4ccccn4)cc3)c3c(N)ncnc3n2C)CC1 [Example 681]
100 to 250	≤ 100	C=CC(=O)N1CCC(c2c(-c3ccc(Oc4ncccn4)cc3)c3c(N)ncnc3n2C)C1 (centres unmarked) [Example 682]
< 100	≤ 100	C=CC(=O)N1CC=C(c2c(-c3ccc(Oc4ccc(C)cn4)c(OC)c3)c3c(N)ncnc3n2C)CC1 [Example 683]
1000 to 100000	1000 to 100000	C=CC(=O)N1CCC(n2nc(-c3c(-c4ccc(Oc5cccc(C)n5)c(OC)c4)c4c(N)ncnc4n3C)cc2C)CC1 [Example 684]
1000 to 100000	1000 to 100000	C=CC(=O)N1CCC(c2c(-c3ccc(Oc4ccc(C)nc4)c(OC)c3)c3c(N)ncnc3n2C)C1 (centres unmarked) [Example 685]
< 100	≤ 100	C=CC(=O)N1CC=C(c2c(-c3ccc(Oc4ncccn4)cc3)c3c(N)ncnc3n2C)C1 [Example 686]
1000 to 100000	1000 to 100000	C=CC(=O)N1CCC(c2c(-c3ccc(Oc4ncccn4)c(OC)c3)c3c(N)ncnc3n2C)C1 (centres unmarked) [Example 687]
1000 to 100000	1000 to 100000	C=C(C)C(=O)N1CC=C(c2c(-c3ccc(Oc4ncccn4)cc3)c3c(N)ncnc3n2C)C1 [Example 688]
< 100	≤ 100	C=CC(=O)N1CCC(c2c(-c3ccc(Oc4ccccn4)cc3)c3c(N)ncnc3n2C)C1 (centres unmarked) [Example 689]
< 100	≤ 100	C=CC(=O)N1CC=C(c2c(-c3ccc(Oc4cccc(CC)n4)c(OC)c3)c3c(N)ncnc3n2C)CC1 [Example 690]
250 to 1000	1000 to 100000	C=C(C)C(=O)N1CCC(c2c(-c3ccc(Oc4cccc(C)n4)cc3)c3c(N)ncnc3n2C)C1 (centres unmarked) [Example 691]
1000 to 100000	1000 to 100000	C/C=C/C(=O)N1CCC(c2c(-c3ccc(Oc4cccc(C)n4)cc3)c3c(N)ncnc3n2C)C1 (centres unmarked) [Example 692]
250 to 1000	1000 to 100000	C=C(C)C(=O)N1CCC(c2c(-c3ccc(Oc4cccc(C)n4)cc3)c3c(N)ncnc3n2C)CC1 [Example 693]
250 to 1000	250 to 1000	C/C=C/C(=O)N1CCC(c2c(-c3ccc(Oc4cccc(C)n4)cc3)c3c(N)ncnc3n2C)CC1 [Example 694]
100 to 250	≤ 100	CC#CC(=O)N1CCC(c2c(-c3ccc(Oc4cccc(C)n4)cc3)c3c(N)ncnc3n2C)CC1 [Example 695]
250 to 1000	100 to 250	C=CC(=O)N1CCC(c2c(-c3ccc(Oc4ncccn4)cc3)c3c(N)ncnc3n2C)CC1 [Example 696]
100 to 250	≤ 100	CC#CC(=O)N1CCC(c2c(-c3ccc(Oc4cccc(C)n4)cc3)c3c(N)ncnc3n2C)C1 (centres unmarked) [Example 699]
1000 to 100000	250 to 1000	C=CC(=O)N1CCC(c2c(-c3ccccc3)c3c(N)ncnc3n2C)C1 (centres unmarked) [Example 700]
< 100	≤ 100	C=CC(=O)N1CCC(c2c(-c3ccc(Oc4ccccn4)cc3)c3c(N)ncnc3n2C)CC1 [Example 701]
250 to 1000	100 to 250	C=CC(=O)N1CCC(c2c(-c3ccc(OC)cc3)c3c(N)ncnc3n2C)C1 (centres unmarked) [Example 702]
< 100	≤ 100	C=C(C)C(=O)Nc1ccc(-c2[nH]c3ncnc(N)c3c2-c2ccc(Oc3cccc(C)n3)cc2)cc1 [Example 703]
